Laboratory results reported in patent US6338862B1, “Composition and method of use in treating sexual dysfunction using cGMP-specific phosphodiesterase type 5 inhibitors” (priority 2001, dated 2002).

Columns and labels:
[1] = system: isolated human corpus cavernosum; conditions: cited from earlier work
[2] = system: subjects who had been frequent users of Viagra®; experiment: blinded study in volunteers, subjective evaluation whether an adequate, satisfactory erection was achieved; assay type: in vivo, human; conditions: oral capsule, out of 12 subjects
Description: In its preferred embodiment, three composition containing sildenafil citrate 12.5 mg, 25 or 50 mg containing the same amounts of L-arginine 200 mg, ginseng 100 mg, folic acid 0.5 mg, vitamin B6 100 mg and vitamin B12 0.75 mg were formulated in a capsule dosage form with suitable inert diluents to hide the identity of the product. […] In a blinded study, the volunteers were given all six products to test on an ad-lib basis. They were informed that the test includes evaluation of two formulations of sildenafil citrate. The volunteers were asked to evaluate the response subjectively whether an adequate, satisfactory erection was achieved. In its preferred embodiment, three composition containing sildenafil citrate 12.5 mg, 25 or 50 mg, and the same amounts of L-arginine 200 mg, ginseng 100 mg, folic acid 0.5 mg, vitamin B6 100 mg and vitamin B12 0.75 mg were formulated in a capsule dosage form with suitable inert diluents to hide the identity of the product. […] In a blinded study, the volunteers were given all six products to test on an ad-lib basis. They were informed that the test includes evaluation of two formulations of sildenafil citrate. At the lowest dose of 12.5 mg, when given alone, only 3 out of 12 subjects reported erection; when given as the composition described, 7 out of 12 subjects reported satisfactory erection. At 25 mg dose 8 out of 12 subjects reported satisfactory erection while 10 subjects reported satisfactory erection at 25 mg dose when given as the composition described. At 50 mg dose the difference was narrowed to 10 subjects reporting erection when given alone and 11 when given as the composition described. It is concluded from this study that using the combination of ingredients as specified in the composition, the required dose of sildenafil to treat sexual dysfunction can be reduced to achieve the same effect as when given alone but at higher does. The most significant advantage appears at lower doses. […]

men = conditions: controlled clinical trials; cited from earlier work

## CCCc1nn(C)c2c(=O)[nH]c(-c3cc(S(=O)(=O)N4CCN(C)CC4)ccc3OCC)nc12.O=C(O)CC(O)(CC(=O)O)C(=O)O [Viagra®, 1-[[3-(6,7-dihydro-1-methyL-7-oxo-3-propyL-1H-pyrazolo[4,3-d]pyrimidin-5-yl)-4-ethoxyphenyl]sulfonyl]-4-methylpiperazine citrate]
[1]
  direct relaxant effect: no direct relaxant effect
[2]; 12.5 mg sildenafil citrate dose
  subjects reporting satisfactory erection: 3 subjects
[2]; 25 mg sildenafil citrate dose
  subjects reporting satisfactory erection: 8 subjects
[2]; 50 mg sildenafil citrate dose
  subjects reporting satisfactory erection: 10 subjects
men
  proves effective in men: 7 out of 10
